# Measurements from patent publication US12421294B2, “Truncated epiderimal growth factor receptor (EGFRt) for transduced t cell selection” (City of Hope, priority 2009, dated 2025).
# Key:
# [1] = tested on: CD19CAR^+EGFRt^+IMPDH2dm^+ Line E cells; assay: MPA resistance culture, IMPDH2dm-expressing Line E cells; format: cell-based, human; details: 1 uM MPA
# control T cell line = assay: MPA resistance culture, control T cells without IMPDH2dm; format: cell-based, human; details: 1 uM MPA, control T cell line lacking IMPDH2dm
structure (smiles),measurement,setting,value
"COc1c(C)c2c(c(O)c1C/C=C(\C)CCC(=O)O)C(=O)OC2 [MPA, mycophenolic acid]",survival and/or proliferation in MPA,[1],not inhibited
same,survival and/or proliferation in MPA,control T cell line,inhibition
